{"source": "patent US8569305B2", "about": "“Treatment of tuberous sclerosis associated neoplasms” (Emory University, priority 2002, dated 2013)", "key": {"Murine tsc2ang1 cells": {"system": "Murine tsc2ang1 cells", "experiment": "Inhibition of proliferation of tsc2ang1 cells by tyrosine kinase inhibitors (cell count)", "type": "cell-based", "conditions": "for N number of living cells after 72 h treatment: Murine tsc2ang1 cells", "excerpt": "(§1) SV7tert (ATCC CRL 2461) is a cell line derived from a human angiomyolipoma through the sequential introduction of SV40 large T antigen and telomerase into primary human angiomyolipoma cells (Arbiser, J. L. et al. The generation and characterization of a cell line derived from a sporadic renal angiomyolipoma: use of telomerase to obtain stable populations of cells from benign neoplasms. Am.J.Pathol. 159, 483-491 (2001)). Angiomyolipomas are benign tumors of the kidney derived from putative perivascular epithelioid cells, that may undergo differentiation into cells with features of melanocytes, smooth muscle, and fat. Tsc2ang1 (ATCC CRL 2620) is a murine cell line derived from a cutaneous sarcoma arising in the extremity of a mouse heterozygous for tsc2. The sarcoma tissue was digested with collagenase and processed as described for SV7tert cells (Arbiser, J. L. et al.). Mice heterozygous for tsc2 develop cutaneous sarcomas at a frequency of approximately 10-15% (Onda, H., Lueck, A., Marks, P. W., Warren, H. B., & Kwiatkowski, D. J. Tsc2(+/−) mice develop tumors in multiple sites that express gelsolin and are influenced by genetic background. J.Clin Invest 104, 687-695 (1999)).\n(§2) The following tyrosine kinase inhibitors were reconstituted as stock solutions in dimethyl sulfoxide (DMSO) immediately prior to use; AG9, AG17, AG18, AG30, AG82, AG99, AG112, AG370, AG490, AG879, AG957, AG1295, AG1296, AG1433, 2′thioadenosine, ST638, COMPOUND I, lavendustin C, oxindole 1, JAK3 inhibitors 1,2, and 3, as well as JAK3 inhibitor negative control. They can be obtained from Calbiochem (San Diego, Calif.). 10,000 cells per well in a 24 well dish were plated on day 1, and were treated with inhibitors in doses ranging from […] (LaMontagne Jr K. R. Jr et al. Inhibition of MAP kinase kinase causes morphological reversion and dissociation between soft agar growth and in vivo tumorigenesis in angiosarcoma cells; Am.J.Pathol. 157,1937-1945 (2000)). Cells were counted 72 hours after treatment with inhibitors using a Coulter Counter (Coulter, Hialeah,Fla.)."}, "[1]": {"system": "Human SV7tert angiomyolipoma cells", "experiment": "Inhibition of proliferation of SV7tert cells by tyrosine kinase inhibitors (cell count)", "type": "cell-based", "conditions": "for sensitivity / growth inhibition of SV7tert cells (in words): Human SV7tert cells in vitro; for N number of living cells after 72 h treatment: Human SV7tert cells; for No. of Cells after 72 hours: SV7tert cells", "excerpt": "as §1, §2"}, "[2]": {"system": "Akt phosphorylation in SV7tert cells", "experiment": "Akt phosphorylation in SV7tert cells after treatment", "type": "cell-based, human", "conditions": "after 24 hours of treatment"}}, "note": "“Also recorded” adds a separate entry of the source.", "data": [{"molecule": "CC(C)(C)c1cc(C=C(C#N)C#N)cc(C(C)(C)C)c1O", "note": "[AG17, 3,5-di-tert-butyl-4-hydroxybenzylidene-malononitrile]", "values": [{"measurement": "sensitivity / growth inhibition of tsc2ang1 cells (in words)", "setting": "Murine tsc2ang1 cells; Murine tsc2ang1 cells in vitro", "value": "hypersensitivity; also recorded: strongly inhibited"}, {"measurement": "N number of living cells after 72 h treatment", "setting": "Murine tsc2ang1 cells; concentration 10 μg/ml", "value": "23 ×100"}, {"measurement": "N number of living cells after 72 h treatment", "setting": "Murine tsc2ang1 cells; concentration 20 μg/ml", "value": "23 ×100"}, {"measurement": "sensitivity / growth inhibition of SV7tert cells (in words)", "setting": "[1]", "value": "highest sensitivity; also recorded: strongly inhibited"}, {"measurement": "N number of living cells after 72 h treatment", "setting": "[1]; concentration 10 μg/ml", "value": "23 ×100"}, {"measurement": "N number of living cells after 72 h treatment", "setting": "[1]; concentration 20 μg/ml", "value": "22 ×100"}]}, {"molecule": "N#C/C(=C\\c1ccc(O)c(O)c1)C(=O)O", "note": "[AG30]", "values": [{"measurement": "N number of living cells after 72 h treatment", "setting": "[1]; concentration 10 μg/ml", "value": "250 ×100"}, {"measurement": "N number of living cells after 72 h treatment", "setting": "[1]; concentration 20 μg/ml", "value": "270 ×100"}]}, {"molecule": "COC(=O)c1ccc(NCc2cc(O)ccc2O)cc1", "note": "[AG957]", "values": [{"measurement": "inhibition", "setting": "[1]; 0.5 μg/ml, data not shown, cell line not stated in the sentence (SV7tert by context)", "value": "approximately 90%"}, {"measurement": "sensitivity / growth inhibition of SV7tert cells (in words)", "setting": "[1]", "value": "highest sensitivity"}]}, {"molecule": "COc1cc2ncnc(Nc3cccc(Cl)c3)c2cc1OC", "note": "[AG1478]", "values": [{"measurement": "N number of living cells after 72 h treatment", "setting": "[1]; concentration 10 μg/ml", "value": "251 ×100"}, {"measurement": "N number of living cells after 72 h treatment", "setting": "[1]; concentration 20 μg/ml", "value": "210 ×100"}]}, {"molecule": "Cc1ccc(NC(=O)c2ccc(CN3CCN(C)CC3)cc2)cc1Nc1nccc(-c2cccnc2)n1", "note": "[COMPOUND I, N-{5-[4-(4-methyl-piperazino-methyl)-benzoylamido]-2-methylphenyl}-4-(3-pyridyl)-2-pyrimidine-amine]", "values": [{"measurement": "Akt phosphorylation (in words)", "setting": "[2]", "value": "downregulation of Akt phosphorylation"}, {"measurement": "sensitivity / growth inhibition of SV7tert cells (in words)", "setting": "[1]", "value": "increased sensitivity to COMPOUND I compared to murine tsc2ang1"}, {"measurement": "No. of Cells after 72 hours", "setting": "[1]; 2 μg/ml (control 22450)", "value": 16500}, {"measurement": "No. of Cells after 72 hours", "setting": "[1]; 5 μg/ml (control 22450)", "value": 10000}, {"measurement": "No. of Cells after 72 hours", "setting": "[1]; 10 μg/ml (control 22450)", "value": 6500}]}, {"molecule": "CCOc1cc(/C=C(\\C#N)C(N)=O)cc(CSc2ccccc2)c1O", "note": "[ST638]", "values": [{"measurement": "N number of living cells after 72 h treatment", "setting": "[1]; concentration 10 μg/ml", "value": "250 ×100"}, {"measurement": "N number of living cells after 72 h treatment", "setting": "[1]; concentration 20 μg/ml", "value": "205 ×100"}]}]}
